Measurements taken from patent US12440476B2, “Agents that target telomerase reverse transcriptase (TERT) for treating cancer and sensitizing cancer cells to genotoxic therapy” (Northwestern University, priority 2022, dated 2025).

Tests used:
CT26 cells [1] = assay: Senescence-associated beta-galactosidase (SA-β-Gal) assay; type: cell-based, mouse; conditions: non-toxic doses, 10 Gy, 5 days
Description: (§1) MCF7, Saos-2, or CT26 cells were seeded at 3×10^4 per well in 6-well plates and allowed to attach to plate overnight. For TERT inhibition, MCF7 cells were treated with DMSO vehicle, NU-2 (0.5 μM), NU-1 (0.5 μM), chrolactomycin (0.5 μM), BIBR 1532 (10 μM), or MST-312 (1 μM) for 1 h prior to IR, Saos-2 cells were treated with DMSO vehicle, NU-2 (1 μM), NU-1 (1 μM), chrolactomycin (1 μM), BIBR 1532 (20 μM), or MST-312 (1 μM) for 1 h prior to IR, and CT26 cells were treated with MSO vehicle, NU-2 (1 μM), NU-1 (1 μM), chrolactomycin (1 μM), BIBR 1532 (20 μM), or MST-312 (2 μM) for 1 h prior to IR. Then MCF7 and Saos-2 cells were irradiated with 0 or 6 Gy and CT26 cells with 0 or 10 Gy. After IR, MCF7 and Saos-2 cells were continuously cultured for 7 days and CT26 for 5 days, then fixed in 2% PFA and stained with staining buffer (1 mg/ml X-Gal (Golden Bio), 40 mM citric acid/sodium phosphate, 150 mM NaCl, 2 mM MgCl2, 3.3 mM K3[Fe(CN)6], 3.3 mM K4[Fe(CN)6], pH=6) for 16 h at 37° C., then washed with warm PBS three times and imaged in PBS within a week. Images were captured on a Zeiss Axiovert 200M microscope with a 20× Plan-NeoFluar objective and Axiocam digital camera. SA-β-Gal-positive and -negative cells were counted in more than 5 fields, yielding an average percentage indicated on each SA-β-Gal image as mean±SD. Three replicates were performed.
To examine the roles for STING, CT26 cells were seeded at 2×10^4 per well in 12-well plates and allowed to attach overnight. STING inhibitor C178 (0 or 4 μM) was added, followed by the addition of DMSO vehicle, NU-1 (1 μM), MST-312 (2 μM) or chrolactomycin (1 μM) for 1 h prior to 0 or 10 Gy. CT26 cells were cultured for 5 days, surviving cells were washed twice in PBS and cultured in fresh immune cell culture medium overnight. The CT26 cells were then cocultured with BMDCs for 12-16 h at a 1:2 ratio, and BMDCs were collected and analyzed after coculturing, as described above.

CT26 cells [2] = assay: Clonogenicity assay (inhibitor alone); type: cell-based, mouse; conditions: 1 μM NU-1, 2 μM MST, 20 μM BIBR
Description: MCF7, Saos-2, or CT26 cells were seeded in 6-well plates at 100 cells per well in triplicate and allowed to attach overnight. MCF7 or CT26 cells were then treated with DMSO vehicle or TERT inhibitors in final concentration of 0.25, 0.5, 0.75, 1, 2 μM for NU-1, 2.5, 5, 7.5, 10, 20 μM for BIBR 1532, or 1, 2, 3, 4, 5 μM for MST-312. Saos-2 cells were treated with DMSO vehicle or TERT inhibitors in final concentration of 0.25, 0.5, 0.75, 1, 2 μM for NU-1 or 2.5, 5, 10, 20, 40 μM for BIBR 1532. The final volume of cell culture medium was 3 mL per well. MCF7 and Saos-2 cells were continuously cultured for 3 weeks and CT26 for 2 weeks in the presence of TERT inhibitors, fixed in methanol for 5 min, then stained with 0.5% crystal violet for 10 min at room temperature. After washing with water, the plates were dried at room temperature and imaged with an iBright Imaging System (Thermo Fisher Scientific).

Saos-2 cells = assay: Clonogenic survival after irradiation (radiosensitivity); type: cell-based, human; conditions: NU-1 1 μM
Description: (§2) To assess radiosensitivity, MCF7, Saos-2, or CT26 cells were seeded in 6-well plates at 100 cells per well in triplicate, allowed to attach overnight and treated with DMSO or TERT inhibitors at subtoxic concentrations for 1 h prior to IR. MCF7 cells were treated with 0.5 μM NU-1, 10 μM BIBR 1532, or 1 μM MST-312, Saos-2 cells with 1 μM NU-1 or 20 μM BIBR 1532 and CT26 cells with 1 μM NU-1, 20 μM BIBR 1532 or 2 μM MST-312. Doses of 0, 1, 2, 3, 4, or 5 Gy were applied using a GammaCell ^60Co γ-ray source (Nordion) at a dose rate of 7.09 cGy/sec. After that MCF7 and Saos-2 cells were cultured for 3 weeks and CT26 for 2 weeks, then fixed and stained with crystal violet. Colonies of at least 50 cells were counted. Data from three independent biological replicates were acquired. The surviving fraction (SF) was calculated using the following formula: […]

MCF7 cells [3] = assay: as above; type: cell-based, human; conditions: MCF7 cells; NU-1 0.5 μM, BIBR 1532 10 μM, MST-312 1 μM for 1 h prior to IR; 2 Gy
Description: as §2

CT26 cells [4] = assay: as above; type: cell-based, mouse; conditions: for Sensitization of CT26 cells to radiation: non-toxic doses; for Mean SF2 (surviving fraction at 2 Gy): CT26 cells, NU-1 1 μM, BIBR 1532 20 μM, MST-312 2 μM for 1 h prior to IR
Description: as §2

MCF7 cells [5] = assay: Senescence-associated beta-galactosidase (SA-β-Gal) assay; type: cell-based, human
Description: as §1, with “For TERT inhibition, MCF7 cells were treated with DMSO vehicle, NU-2 (0.5 μM), NU-1 (0.5 μM), chrolactomycin (0.5 μM), BIBR 1532 (10 μM), or MST-312 (1 μM) for 1 h prior to IR, Saos-2 cells were treated with DMSO vehicle, NU-2 (1 μM), NU-1 (1 μM), chrolactomycin (1 μM), BIBR 1532 (20 μM), or MST-312 (1 μM) for 1 h prior to IR, and CT26 cells were treated with MSO vehicle, NU-2 (1 μM), NU-1 (1 μM), chrolactomycin (1 μM), BIBR 1532 (20 μM), or MST-312 (2 μM) for 1 h prior to IR.” left out

MCF7-FUCCI cells = assay: Time-lapse live-cell analysis of cell cycle; type: cell-based, human; conditions: 0.5 μM for 1 h, then 6 Gy, 6 days
Description: MCF7-FUCCI cells were seeded at 3×10^4 per well in 6-well plates, allowed to attach overnight, then treated with 0.5 μM NU-2 control, NU-1 or chrolactomycin for 1 h, followed by 6 Gy. Then, live-cell imaging was conducted using the IncuCyteS3. Phase contrast along with green and red channels were acquired at 20× magnification with scanning every 2 h for 6 days. 16 non-overlapping fields were captured for each well. Representative consecutive images were used to create the movies using Fiji (Schindelin et al., 2012).

CD8+ T cells = assay: In vitro T cell priming assay (CFSE dilution); type: cell-based, mouse; conditions: DCs stimulated by inhibitor treated and irradiated (10 Gy) CT26 cells; 5 days; NU-1 1 μM, MST 2 μM
Description: To evaluate effects of TERT on tumor immunogenicity, CT26 cells were seeded at […] per well in 12-well plates, allowed to attach overnight, and then treated with DMSO, NU-1 (1 μM), or MST-312 (2 μM) for 1 h, followed by 0 or 10 Gy. 5 days after IR, the media were removed, cells washed with PBS, and fresh immune cell culture medium added. CT26 cells were then cultured overnight, followed by coculturing with immature BMDCs for 12-16 h at a 1:2 ratio. After coculture, the suspension BMDCs were collected into round bottom FACS tubes, washed with PBS, and stained with Zombie yellow (1:1000, BioLegend) for 10 min at room temperature. […] After PBS washing, cells were resuspended in 300 μL Cell Staining Buffer and analyzed using a BD Fortessa 4-15 HTS Flow cytometer within 2 hours. Data were then analyzed by FlowJo software. […]
Splenocytes isolated from CT26 immunized mice were stained with 0.5 μM carboxyfluorescein succinimidyl ester (CFSE) (Thermo Fisher Scientific, Cat #C34554) for 10 min at room temperature (Quah et al., 2007). […] Cells were analyzed using a BD Fortessa 4-15 HTS flow cytometer and FlowJo software. […]

C/C(=C\C(=O)Nc1ccccc1C(=O)O)c1ccc2ccccc2c1 [BIBR 1532]
Senescence induction by IR (CT26 cells [1]): had no similar effects | Tolerance in clonogenic assay (inhibitor alone) (CT26 cells [2]): non-toxic | Radiosensitization in clonogenic survival assay (Saos-2 cells; Saos-2 (telomerase negative), BIBR 20 μM): Neither NU-1 nor BIBR displayed radiosensitization | Mean SF2 (surviving fraction at 2 Gy) (Saos-2 cells; Saos-2 cells, BIBR 1532 20 μM for 1 h prior to IR, 2 Gy): 0.580 | Mean SF2 (surviving fraction at 2 Gy) (MCF7 cells [3]): 0.256 | Sensitization of CT26 cells to radiation (CT26 cells [4]): had no similar effects | Mean SF2 (surviving fraction at 2 Gy) (CT26 cells [4]): 0.727

COC(=O)[C@@]1(C)C(=O)C[C@@H](C)O[C@H]1CCc1cn(Cc2ccc(F)cc2F)nn1 [NU-2]
SA-β-Gal+ cells (MCF7 cells [5]; 7 days after IR (6 Gy)): ~34% | Surviving cells arrested with G1 marker expression and senescent morphology (MCF7-FUCCI cells): ~40%

C=C1C(=O)[C@]2(OC)C(=O)O[C@@]34C[C@H](C)C(C(=O)O)=C[C@@H]3CCC[C@@H](C)C[C@@H](C)[C@H]1O[C@H]24 [CHRO, chrolactomycin, reference compound]
Enhancement of senescence after IR at low concentration (MCF7 cells [5]; 50 nM, 7 days after IR): sufficient to enhance senescence after IR | Surviving cells arrested with G1 marker expression and senescent morphology (MCF7-FUCCI cells): ~80%

O=C(Nc1cccc(NC(=O)c2cccc(O)c2O)c1)c1cccc(O)c1O [MST-312]
Senescence induction by IR (CT26 cells [1]): enhanced senescence induction by IR | Proliferating CD8+ T cells (CD8+ T cells): 30.4% | Tolerance in clonogenic assay (inhibitor alone) (CT26 cells [2]): tolerated | Mean SF2 (surviving fraction at 2 Gy) (MCF7 cells [3]): 0.245 | Sensitization of CT26 cells to radiation (CT26 cells [4]): sensitized CT26 cells to radiation | Mean SF2 (surviving fraction at 2 Gy) (CT26 cells [4]): 0.407
